Experimental data taken from PubChem BioAssay (NCI).
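Growth conditions: 96-well plates. Treatment: test compound, 48 hours, 5 concentrations. Analysis: linear interpolation between bracketing concentrations; unreached endpoints set to highest concentration. At the TGI there is no net growth.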

Columns and labels:
Test in all cases: inhibition of tumour cell growth, NCI panel, 48 h
[1] = test system: RPMI-8226 leukemia
[2] = test system: K-562 leukemia
[3] = test system: SF-539 CNS
[4] = test system: CCRF-CEM leukemia
[5] = test system: SF-295 CNS
[6] = test system: A549 NSCLC
[7] = test system: SK-MEL-2 melanoma
[8] = test system: BT-549 breast
[9] = test system: TK-10 renal
[10] = test system: SNB-19 CNS
[11] = test system: ACHN renal
[12] = test system: UACC-62 melanoma
[13] = test system: UACC-257 melanoma
[14] = test system: HCT-116 colon
[15] = test system: MOLT-4 leukemia
[16] = test system: KM12 colon
[17] = test system: 786-0 renal
[18] = test system: NCI-H226 lung
[19] = test system: PC-3 prostate
[20] = test system: NCI/ADR-RES ovarian
[21] = test system: HCC-2998 colon
[22] = test system: MALME-3M melanoma
[23] = test system: OVCAR-3 ovarian
[24] = test system: HT29 colon
[25] = test system: HL-60(TB) leukemia
[26] = test system: IGROV1 ovarian
[27] = test system: SK-OV-3 ovarian
[28] = test system: OVCAR-8 ovarian
[29] = test system: NCI-H460 lung
[30] = test system: HOP-92 NSCLC
[31] = test system: HCT-15 colon
[32] = test system: SN12C renal
[33] = test system: RXF 393 renal
[34] = test system: OVCAR-5 ovarian
[35] = test system: HOP-62 NSCLC
[36] = test system: OVCAR-4 ovarian
[37] = test system: NCI-H23 lung
[38] = test system: SNB-75 CNS
[39] = test system: SF-268 CNS
[40] = test system: CAKI-1 renal
[41] = test system: SW-620 colon
[42] = test system: MCF7 breast
[43] = test system: NCI-H522 lung
[44] = test system: DU-145 prostate
[45] = test system: SR leukemia
[46] = test system: EKVX NSCLC
[47] = test system: COLO 205 colon
[48] = test system: UO-31 renal
[49] = test system: SK-MEL-28 melanoma
[50] = test system: U251 CNS
[51] = test system: MDA-N

Measured: TGI

Cc1cccc2nc3n(c12)C(=O)c1ccccc1-3
> 100 µM: all assays above
